Like-named read-outs stand apart in the source and are kept apart here.

The subject of assay [1] is P. falciparum 3D7 parasites. The experiment in a line: P. falciparum growth inhibition assay, 1-cycle (72 h treatment), SYBR DNA staining (library screen at 2 μg/mL and dose-response). The format is cell-based, Plasmodium falciparum. The following applies: P. falciparum, 72 h, parasite screen 2 μg/mL, % growth; for activity at 2 µg/mL: Plasmodium falciparum.
In assay [2] the test system is P. falciparum 3D7 parasites. In words: P. falciparum growth inhibition assay, 2-cycle (120 h treatment), delayed-death screen and dose-response. Format: cell-based, Plasmodium falciparum. The following applies: P. falciparum, 120 h, parasite screen 2 μg/mL, % growth; for activity at 2 µg/mL: Plasmodium falciparum.
The subject of assay [3] is T. gondii RH strain (RH-Tub-eYFP) tachyzoites. The experiment in a line: microbe, parasite or virus in culture. Format: cell-based, Toxoplasma gondii.
Where [4] appears, read: 3D7, replicate 1, read-out: Pf_72h_%Growth_Rep1.
Setting [5] is: 3D7, replicate 2, read-out: Pf_72h_%Growth_Rep2.
The mark [6] stands for this setting: 3D7, replicate 1, read-out: Pf_120h_%Growth_Rep1.
[7] abbreviates: 3D7, replicate 2, read-out: Pf_120h_%Growth_Rep2.
[8] abbreviates: T. gondii, 72 h, 2 μg/mL; mean of both replicates, growth (% of control).
The mark [9] stands for this setting: T. gondii, 72 h, 2 μg/mL; values are growth (% of control).
The mark [10] stands for this setting: T. gondii, 72 h, parasite screen 2 μg/mL, % growth, replicate 1.
[11] abbreviates: T. gondii, 72 h, parasite screen 2 μg/mL, % growth, replicate 2.
[12] abbreviates: Toxoplasma gondii, 72 h, T. gondii, 72 h, parasite screen 2 μg/mL, % growth, replicate 1; read-out: Tg_72h_%Growth_Rep1.
The mark [13] stands for this setting: Toxoplasma gondii, 72 h, T. gondii, 72 h, parasite screen 2 μg/mL, % growth, replicate 2; read-out: Tg_72h_%Growth_Rep2.
[14] abbreviates: 3D7, 72 h, replicate 1, read-out: Pf_72h_%Growth_Rep1.
[15] abbreviates: 3D7, 72 h, replicate 2, read-out: Pf_72h_%Growth_Rep2.
Setting [16] is: 3D7, 120 h, replicate 1, read-out: Pf_120h_%Growth_Rep1.
Setting [17] is: 3D7, 120 h, replicate 2, read-out: Pf_120h_%Growth_Rep2.

For the compound `CCCCCC1=C/C(=C/c2[nH]c(-c3ccc[nH]3)cc2OC)N=C1C` [Prodigiosin], the activity at 2 µg/mL was 5.96% in assay [1] (setting [4]), 4.13% in assay [1] (setting [5]), -0.86% in assay [2] (setting [6]) and 19.4% in assay [2] (setting [7]). The compound further displayed a Mean in assay [3] (setting [8]) of 25.60. Also, in assay [3] (setting [9]), the “Replicate 1” value is 39.74. Moreover, the “Replicate 2” value in assay [3] (setting [9]) was 11.46. Further, the percent parasite growth at 2 µg/mL in assay [3] (Toxoplasma gondii; T. gondii, 72 h, parasite screen 2 μg/mL, % growth, replicate 1; read-out: Tg_72h_%Growth_Rep1) came out at 39.7%; in assay [3] (Toxoplasma gondii; T. gondii, 72 h, parasite screen 2 μg/mL, % growth, replicate 2; read-out: Tg_72h_%Growth_Rep2) it was 11.5%.

As to `CC[C@@H](O)[C@@](C)(O)[C@@H]1OC(=O)[C@H](C)[C@@H](O[C@H]2C[C@@](C)(OC)[C@@H](O)[C@H](C)O2)[C@H](C)[C@@H](O[C@@H]2O[C@H](C)C[C@H](N(C)C)[C@H]2O)[C@@]2(C)CC(C)=C(O2)[C@@H]1C` [Pseudoerythromycin A enol ether], the Pf_72h_%Growth_Rep1 in assay [1] (replicate 1) turned out to be 72.76%. In addition, the Pf_72h_%Growth_Rep2 in assay [1] (replicate 2) is recorded as 82.73%. The same compound displayed a Pf_120h_%Growth_Rep1 in assay [2] (replicate 1) of 72.95%. Besides, the Pf_120h_%Growth_Rep2 in assay [2] (replicate 2) is 110.79%. In addition, the Tg_72h_%Growth_Rep1 in assay [3] (setting [10]) worked out at 127.77%. This compound gave a Tg_72h_%Growth_Rep2 in assay [3] (setting [11]) of 87.62%.

Turning to `C/C(=C\C(=O)OCCCCCCCCC(=O)O)C[C@@H]1OC[C@H](C[C@@H]2O[C@H]2[C@@H](C)[C@H](C)O)[C@@H](O)[C@H]1O` [Pseudomonic acid], the activity at 2 µg/mL in assay [1] (setting [4]) worked out at 29.1%; in assay [1] (setting [5]), 6.31%; in assay [2] (setting [6]), 0.62%; in assay [2] (setting [7]), 28.1%. In addition, the percent parasite growth at 2 µg/mL stood at 70.8% in assay [3] (setting [12]) and 74.5% in assay [3] (setting [13]).

Consider `CC/C=C\[C@H](O)[C@H](O)C1=C(C)C(=O)[C@]2(O1)C(=O)N[C@@](OC)(C(=O)c1ccccc1)[C@@H]2O` [Pseurotin A], for which the activity at 2 µg/mL was 85.8% in assay [1] (setting [4]), 95.5% in assay [1] (setting [5]), 79.7% in assay [2] (setting [6]) and 139% in assay [2] (setting [7]). For the same compound, the figures for the percent parasite growth at 2 µg/mL in assay [3] (setting [12]) and in assay [3] (setting [13]) were 122% and 81%, respectively.

Take `COc1cc(C(=O)O)c2c(c1C)OC(=O)c1c(C)cc(O)c(C=O)c1O2` [Psoromic acid]: the activity at 2 µg/mL in assay [1] (setting [4]) stood at 92.3%; in assay [1] (setting [5]), 123%; in assay [2] (setting [6]), 90.8%; in assay [2] (setting [7]), 141%. Further, the percent parasite growth at 2 µg/mL in assay [3] (setting [12]) worked out at 127%; in assay [3] (setting [13]), 82.8%.

The compound `CN1CCC2(c3cccc4c3NC3N(C)CCC43c3cccc4c3NC3N(C)CCC43C34CCN(C)C3Nc3c(C56CCN(C)C5Nc5ccccc56)cccc34)c3ccccc3NC12` (stereo not drawn) [Psychotridine] registered a Pf_72h_%Growth_Rep1 in assay [1] (replicate 1) of 4.01%. For the same compound, in assay [1] (replicate 2), the Pf_72h_%Growth_Rep2 was -3.25%. The compound further showed a Pf_120h_%Growth_Rep1 in assay [2] (replicate 1) of 15.63%. Besides, the Pf_120h_%Growth_Rep2 in assay [2] (replicate 2) amounted to 4.30%. Further, the Mean in assay [3] (setting [8]) is 39.57. Besides, in assay [3] (setting [9]), the “Replicate 1” value was determined as 17.15 and the “Replicate 2” value turned out to be 61.99. In assay [3] (setting [10]), the Tg_72h_%Growth_Rep1 is on record as 17.15%. In assay [3] (setting [11]), the Tg_72h_%Growth_Rep2 was 61.99%.

As for `CN(C)c1ncnc2c1ncn2[C@@H]1O[C@H](CO)[C@@H](N)[C@H]1O` [Puromycin aminonucleoside], the activity at 2 µg/mL in assay [1] (setting [14]) was found to be 78%; in assay [1] (setting [15]), 105%; in assay [2] (setting [16]), 69.5%; in assay [2] (setting [17]), 57.6%. Besides, the percent parasite growth at 2 µg/mL was -2.04% in assay [3] (setting [12]) and 0.2% in assay [3] (setting [13]).

Turning to `COc1ccc(C[C@H](N)C(=O)N[C@H]2[C@@H](O)[C@H](n3cnc4c(N(C)C)ncnc43)O[C@@H]2CO)cc1` [Puromycin], the activity at 2 µg/mL in assay [1] (setting [4]) was 1.82%; in assay [1] (setting [5]), 1.65%; in assay [2] (setting [6]) it was -0.01%; in assay [2] (setting [7]), 7.14%. Also, the values for the percent parasite growth at 2 µg/mL in assay [3] (setting [12]) and in assay [3] (setting [13]) were -0.59% and 1.12%, respectively.

On to `O=C(c1cc(Cl)c(Cl)[nH]1)c1c(O)cccc1O` [Pyoluteorin], for which the activity at 2 µg/mL came to 12.8% in assay [1] (setting [14]), 3.08% in assay [1] (setting [15]), 21.2% in assay [2] (setting [16]) and 3.32% in assay [2] (setting [17]). For the same compound, the percent parasite growth at 2 µg/mL in assay [3] (setting [12]) is -1.3%; in assay [3] (setting [13]), -1.92%.

As for `C[C@@H]1CC[C@H](O)/C=C/C(=O)O[C@H](C)CC[C@H](O)/C=C/C(=O)O1` [Pyrenophorol], the Pf_72h_%Growth_Rep1 in assay [1] (replicate 1) is recorded as 90.24%. Further, the Pf_72h_%Growth_Rep2 in assay [1] (replicate 2) was found to be 103.36%. The same compound registered a Pf_120h_%Growth_Rep1 in assay [2] (replicate 1) of 102.30%. Moreover, the Pf_120h_%Growth_Rep2 in assay [2] (replicate 2) was found to be 75.99%. In addition, the Tg_72h_%Growth_Rep1 in assay [3] (setting [10]) is recorded as 105.85%. This compound came in with a Tg_72h_%Growth_Rep2 in assay [3] (setting [11]) of 74.43%.

Compound `O=c1c2cccn2c(=O)c2cccn12` [Pyrocoll] displayed a Pf_72h_%Growth_Rep1 in assay [1] (replicate 1) of 84.60%. The Pf_72h_%Growth_Rep2 in assay [1] (replicate 2) worked out at 82.90%. Moreover, in assay [2] (replicate 1), the Pf_120h_%Growth_Rep1 worked out at 85.16%. For the same compound, in assay [2] (replicate 2), the Pf_120h_%Growth_Rep2 turned out to be 138.60%. The compound also displayed a Tg_72h_%Growth_Rep1 in assay [3] (setting [10]) of 94.37%. For the same compound, the Tg_72h_%Growth_Rep2 in assay [3] (setting [11]) is given as 83.97%.

For the compound `O=C(O)c1ccc[nH]1` [Pyrrole-2-carboxylic acid], the activity at 2 µg/mL in assay [1] (setting [4]) turned out to be 86.7%; in assay [1] (setting [5]), 115%; in assay [2] (setting [6]), 88.6%; in assay [2] (setting [7]), 136%. For the same compound, the percent parasite growth at 2 µg/mL came out at 130% in assay [3] (setting [12]) and 86.8% in assay [3] (setting [13]).

With `CC1(C)C[C@]23[C@@H]4COC(=O)[C@H]2CC[C@H]1[C@@H]3CC4=O` [Quadrone], the activity at 2 µg/mL in assay [1] (setting [4]) was 19%; in assay [1] (setting [5]), 18.9%; in assay [2] (setting [6]) it was 7%; in assay [2] (setting [7]), 13.5%. Besides, the percent parasite growth at 2 µg/mL was found to be 48.4% in assay [3] (setting [12]) and 61.5% in assay [3] (setting [13]).

Compound `Nc1cc2nc3ccccc3oc-2cc1=O` [Questiomycin A] yielded a Pf_72h_%Growth_Rep1 in assay [1] (replicate 1) of 72.04%. Besides, the Pf_72h_%Growth_Rep2 in assay [1] (replicate 2) turned out to be 68.55%. The compound further gave a Pf_120h_%Growth_Rep1 in assay [2] (replicate 1) of 44.88%. The Pf_120h_%Growth_Rep2 in assay [2] (replicate 2) was 66.03%. This compound also showed a Tg_72h_%Growth_Rep1 in assay [3] (setting [10]) of 83.12%. The compound further returned a Tg_72h_%Growth_Rep2 in assay [3] (setting [11]) of 77.23%.

Consider `C[C@H]1NC(=O)[C@@H]2CCCCN2C(=O)CN(C)C(=O)CNC(=O)[C@@H]2CCCCN2C(=O)[C@H](NC(=O)c2nc3ccccc3cc2O)[C@@H](C)NC(=O)[C@@H]2CCCCN2C(=O)CN(C)C(=O)CNC(=O)[C@@H]2CCCCN2C(=O)[C@@H]1NC(=O)c1nc2ccccc2cc1O` [Quinaldopeptin], for which, in assay [1] (replicate 1), the Pf_72h_%Growth_Rep1 turned out to be 9.69%. In addition, in assay [1] (replicate 2), the Pf_72h_%Growth_Rep2 is listed as 1.67%. In assay [2] (replicate 1), this compound had a Pf_120h_%Growth_Rep1 of 19.16%. The Pf_120h_%Growth_Rep2 in assay [2] (replicate 2) was 8.74%. This compound also returned a Tg_72h_%Growth_Rep1 in assay [3] (setting [10]) of 3.09%. In assay [3] (setting [11]), this compound showed a Tg_72h_%Growth_Rep2 of 0.65%.

In assay [1] (replicate 1), `CC[C@H](C)[C@H]1NC(=O)c2c1n(C)c1ccccc1c2=O` [Quinolactacin A1] showed a Pf_72h_%Growth_Rep1 of 15.83%. Also, in assay [1] (replicate 2), the Pf_72h_%Growth_Rep2 is reported as 6.94%. In addition, in assay [2] (replicate 1), the Pf_120h_%Growth_Rep1 was 17.07%. Besides, the Pf_120h_%Growth_Rep2 in assay [2] (replicate 2) is on record as -10.01%. Also, in assay [3] (setting [10]), the Tg_72h_%Growth_Rep1 came to 131.04%. Also, the Tg_72h_%Growth_Rep2 in assay [3] (setting [11]) was found to be 75.52%.

The values above are taken from publication PMC12396409, “Screening and hit evaluation of a microbial metabolite library against the pathogenic Plasmodium falciparum and Toxoplasma gondii parasites” (International Journal for Parasitology: Drugs and Drug …, 2025).
